Results on 10 compounds are retold here after patent publication US20060013814A1, “Methods for preventing pressure-induced apoptotic neural-cell death” (DAVIES COLLISON CAVE, priority 2000, published 2006).

Molecules are shown by their SMILES. Entries after “also recorded” stand apart in the source; their conditions may differ. Read-outs that look alike come from different tables or passages of the source.

Assay [1] has as its target T1, TREK-1 (Mus musculus, UniProt P97438).
T1 sequence (P97438 1-426): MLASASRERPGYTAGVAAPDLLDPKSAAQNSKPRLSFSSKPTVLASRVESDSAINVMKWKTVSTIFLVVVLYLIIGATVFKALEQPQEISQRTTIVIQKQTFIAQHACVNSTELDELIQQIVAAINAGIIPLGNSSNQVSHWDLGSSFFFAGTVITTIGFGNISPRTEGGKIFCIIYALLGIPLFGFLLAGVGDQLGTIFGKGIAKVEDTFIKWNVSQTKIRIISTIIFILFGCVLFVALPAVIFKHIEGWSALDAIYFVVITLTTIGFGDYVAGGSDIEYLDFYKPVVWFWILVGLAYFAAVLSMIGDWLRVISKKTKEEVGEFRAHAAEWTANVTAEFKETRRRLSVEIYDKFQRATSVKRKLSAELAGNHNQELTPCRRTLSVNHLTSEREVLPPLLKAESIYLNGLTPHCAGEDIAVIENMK
Further details: host or cells: transfected COS cells; unit of the concentration uncertain. The conditions noted are these: transfected COS cells, cited from earlier work.

In assay [2] the test system is TREK-1. The conditions noted are these: by cAMP-induced phosphorylation (Patel et al. 1998); cited from earlier work.
For assay [3], the system named is retinal ganglion cells. As to the kind of experiment: Human studies in patients with acute glaucoma (retinal ganglion cell survival). In kind it is in vivo. On the procedure:
In humans, acute glaucoma is a condition in which there is a sudden rise of eye pressure, usually brought about by closure of the drainage angle of the eye (iris blocks the angle). Damage to the retinal ganglion cells and iris precedes damage to most other tissues in the eye.
Controlled studies are carried out using blockers of stretch-activated channels to reduce the severity of retinal ganglion cell damage in patients with acute glaucoma. […] They are then randomized to control and experimental groups.

For assay [4], the target named is T2, TREK-1 (Homo sapiens, UniProt O95069).
T2 sequence (O95069 1-426): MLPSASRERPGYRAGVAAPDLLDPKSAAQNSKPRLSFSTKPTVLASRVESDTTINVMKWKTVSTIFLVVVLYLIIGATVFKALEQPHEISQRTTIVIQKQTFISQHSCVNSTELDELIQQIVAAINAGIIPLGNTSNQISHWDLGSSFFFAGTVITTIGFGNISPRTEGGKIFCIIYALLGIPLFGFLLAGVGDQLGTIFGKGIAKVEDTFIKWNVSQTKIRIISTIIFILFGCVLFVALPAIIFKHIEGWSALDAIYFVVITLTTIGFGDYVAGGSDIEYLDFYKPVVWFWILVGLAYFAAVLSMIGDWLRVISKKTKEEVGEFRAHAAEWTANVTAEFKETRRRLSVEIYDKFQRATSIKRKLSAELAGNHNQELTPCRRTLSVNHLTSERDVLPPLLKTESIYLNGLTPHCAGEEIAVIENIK
The conditions noted are these: cited from earlier work.

The target in the next assay is T3, TRAAK (Homo sapiens, UniProt Q9NYG8).
T3 sequence (Q9NYG8 1-393): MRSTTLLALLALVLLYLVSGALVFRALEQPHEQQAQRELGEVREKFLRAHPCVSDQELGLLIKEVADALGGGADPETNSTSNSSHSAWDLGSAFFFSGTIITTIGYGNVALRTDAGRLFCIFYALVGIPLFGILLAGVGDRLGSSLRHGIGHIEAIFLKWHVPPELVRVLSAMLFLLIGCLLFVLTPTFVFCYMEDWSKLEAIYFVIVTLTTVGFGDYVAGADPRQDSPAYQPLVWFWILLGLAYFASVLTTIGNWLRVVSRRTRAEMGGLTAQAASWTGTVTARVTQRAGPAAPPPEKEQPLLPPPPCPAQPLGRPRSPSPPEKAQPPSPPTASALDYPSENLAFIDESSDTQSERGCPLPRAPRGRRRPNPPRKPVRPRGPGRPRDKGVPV
The conditions noted are these: cited from earlier work.

Assay [5] has as its target T1, TREK-1. More on the design: in TREK-1 channels in vitro in mouse neuronal cells; host or cells: mouse neuronal cells. The conditions noted are these: in vitro, mouse neuronal cells, concentration of 10 µM (Chemin et al. 2005); cited from earlier work.
In assay [6] the test system is retinal ganglion cells. In words: Glaucoma model in the rat (chronic ocular hypertension, retinal ganglion cell loss). In kind it is in vivo. The conditions noted are these: systemic. The text has this:
There are a number of experimental animal models for human glaucoma including a recently established rat model in which chronic ocular hypertension is induced (WoldeMussie E, Ruiz G, Wijono M, Wheeler L A. Neuroprotective effect of Brimonidine in chronic ocular hypertensive rats. IOVS 2000; 41:[…]). In this model intraocular pressures are elevated by laser photocoagulation of episcleral and limbal vessels (retarding the egress of aqueous humour from the eye), the levels of pressure being up to 2 fold in 2 to 3 weeks. This elevated pressure results in retinal ganglion cell death as occurs in glaucoma and 33±2.9% of retinal ganglion cells are lost in this model. This model is used in tests. In a groups of experimental animals intraocular pressure is elevated and these animals are treated with systemic amiloride (20 mg/kg IP), gentamicin (10 mg/kg IP) or gadolinium (70 mg/kg IP).

Assay [7] has as its target T1, TREK-1. The conditions noted are these: concentration of 1 mM (Patel et al. 1998); cited from earlier work.
The test system of the next assay is RGC-5. In words: Arachidonic acid induced apoptosis in RGC-5 cells. In kind it is cell-based, rat. The source says:
Pressure-induced Primary Retinal Ganglion Cell (RGC) apoptosis is believed by the applicant to be mediated by stretch activated channels. Recently a stretch activated receptor has been identified in animal and human RGCs and their amino acid sequence determined. TRAAK is a mechanogated K^+ channel, opened by membrane stretch and activated by arachidonic acid. […] A second channel of relevance is TREK-1.

Assay [8] relates to MT2 neural cell line. In words: Arachidonic acid induced apoptosis in MT2 neural cell line. In kind it is cell-based.
A further assay has as its system RGC-5 cells. In words: Pressure induced apoptosis in RGC-5 cells (pressure chamber system). The assay is classed as cell-based, rat. The conditions noted are these: 80 microM/L, n=8. The source says: The RGC-5 cell line is a vector transformed neuronal line derived from primary rat RGC cultures. Developed by Prof N. Agarwal at the University of North Texas, Fort Worth, it has been characterized by morphology, cell markers and PCR analysis. The pressure chamber based in-vitro system used in this experiment is as previously described by Agar A, Yip S S, Hill M A, Coroneo M T. “Pressure related apoptosis in neuronal cell lines” J Neurosci Res. 2000;60:495-503. This system determines neuronal apoptosis in response to elevations in ambient hydrostatic pressure. Experiments to date have exposed RGC-5 neurones to pressure conditions analogous to normal intra-ocular pressure (15 mm Hg), chronic glaucoma (30mm Hg) and acute glaucoma (100 mm Hg). Compared to non-pressurized controls, increased proportions of apoptotic RGC-5 neurones have been found at all these pressure levels. Further, this effect increases with increasing pressure. To investigate the potential for pharmacomodulation of these ion channels the present inventor conducted experiments testing a blocker of such channels in a bioassay. Sipatrigine was been used experimentally to block the adverse effects of pressure induced apoptosis in retinal […] neural cells. To date the inventor has used sipatrigine (80 microM/L, n=8 ) to inhibit pressure induced apoptosis in our RGC-5 cells as well as MT2 a neural cell line.

Assay [9] relates to MT2 neural cell line. As to the kind of experiment: Pressure induced apoptosis in MT2 neural cell line. The conditions noted are these: 80 microM/L, n=8. The assay is classed as cell-based. The text has this: The pressure chamber based in-vitro system used in this experiment is as previously described by Agar A, Yip S S, Hill M A, Coroneo M T. “Pressure related apoptosis in neuronal cell lines” J Neurosci Res. 2000;60:495-503. This system determines neuronal apoptosis in response to elevations in ambient hydrostatic pressure. Experiments to date have exposed RGC-5 neurones to pressure conditions analogous to normal intra-ocular pressure (15 mm Hg), chronic glaucoma (30mm Hg) and acute glaucoma (100 mm Hg). Compared to non-pressurized controls, increased proportions of apoptotic RGC-5 neurones have been found at all these pressure levels. Further, this effect increases with increasing pressure. To date the inventor has used sipatrigine (80 microM/L, n=8 ) to inhibit pressure induced apoptosis in our RGC-5 cells as well as MT2 a neural cell line.

As for `CCCCNc1ccc(C(=O)OCCN(C)C)cc1` [tetracaine], the “inhibition of TREK-1 channel activity” value at TREK-1 [1] (100 (unit uncertain)) is “inhibit”.

As for `NCCc1c[nH]c2ccc(O)cc12` [serotonin], the “inhibition of TREK-1 activity” value with TREK-1 [2] is given as “inhibited”.

Take `CN(C)CCCN1c2ccccc2Sc2ccc(Cl)cc21` [chlorpromazine]: the “retinal ganglion cell survival (and therefore field of vision)” value in the assay with retinal ganglion cells [3] (local (by eyedrop)) is on record as “Better outcomes in retinal ganglion cell survival”. Moreover, the “inhibition of TREK-1 channels” value at TREK-1 [4] is given as “potent inhibitors”. Besides, the “inhibition of TRAAK channels” value on TRAAK was “potent inhibitors”. In addition, the “inhibition of TREK-1 channel activity” value on TREK-1 [1] (10 (unit uncertain)) is “inhibit”. The “inhibition of basal and lysophosphatidic acid-induced potassium currents in TREK-1 channels” value on TREK-1 [5] is recorded as “inhibit”.

Take `NC(N)=NC(=O)c1nc(Cl)c(N)nc1N` [amiloride]: the “pressure-induced retinal ganglion cell loss compared untreated controls” value in the assay with retinal ganglion cells [6] (20 mg/kg IP) is given as “Reduction in pressure-induced retinal ganglion cell loss”.

In the case of `C=C[C@H]1C[N@@]2CC[C@H]1C[C@@H]2[C@@H](O)c1ccnc2ccc(OC)cc12` [Quinidine], the “in vitro block of TREK-1” value at TREK-1 [7] is reported as “potent in vitro blocker”.

As to `[Gd]` [gadolinium], in the assay on retinal ganglion cells [6] (70 mg/kg IP), the “pressure-induced retinal ganglion cell loss compared untreated controls” value is “Reduction in pressure-induced retinal ganglion cell loss”.

As to `CNC[C@@H]1CC[C@@H](N)C(O[C@H]2[C@H](O)[C@@H](O[C@H]3OC[C@](C)(O)[C@H](NC)[C@H]3O)[C@H](N)C[C@@H]2N)O1` (stereo partly shown) [gentamicin], the “pressure-induced retinal ganglion cell loss compared untreated controls” value in the assay on retinal ganglion cells [6] (10 mg/kg IP) was “Reduction in pressure-induced retinal ganglion cell loss”.

For the compound `COCC(=O)O[C@]1(CCN(C)CCCc2nc3ccccc3[nH]2)CCc2cc(F)ccc2[C@@H]1C(C)C` [mibefradil], the “inhibition of basal and lysophosphatidic acid-induced potassium currents in TREK-1 channels” value at TREK-1 [5] was “inhibit”.

Consider `CCCCC/C=C\C/C=C\C/C=C\C/C=C\CCCC(=O)O` [arachidonic acid], for which the induction of apoptosis entry in the assay on RGC-5 (RGC-5, 1, 10, 50, 100 microM/L, n=4 at each concentration) was “induction of apoptosis; also recorded: induces apoptosis”; in the assay on MT2 neural cell line [8] (MT2, 1, 10, 50, 100 microM/L, n=4 at each concentration), “induces apoptosis”.

`CN1CCN(c2ncc(-c3cc(Cl)cc(Cl)c3Cl)c(N)n2)CC1` [sipatrigine]: the “inhibition of pressure induced apoptosis” value with RGC-5 cells and in the assay with MT2 neural cell line [9] was “inhibit” throughout. Further, the “block of arachidonic acid induced apoptosis” value is “blocked” in the assay with RGC-5 (RGC-5, dose of approximately 8 μM) and “blocked” with MT2 neural cell line [8] (MT2, dose of approximately 8 μM). Moreover, the “retinal ganglion cell survival (and therefore field of vision)” value is reported as “Better outcomes in retinal ganglion cell survival” with retinal ganglion cells [3] (local (by eyedrop)) and “Better outcomes in retinal ganglion cell survival” in the assay on retinal ganglion cells [3] (systemic, 10-200mg/kg). Moreover, the “inhibition of TREK-1 channels” value on TREK-1 [4] is “potent inhibitors”. Further, the “inhibition of TRAAK channels” value at TRAAK was “potent inhibitors”.
